Results on 3 compounds are retold here after patent US20260223838A1, “ANTIMICROBIAL MASTERBATCHES AND POWDERS COMPRISING A SYNERGISTIC BLEND OF COMPONENTS” (priority 2023, published 2026).

This assay has as its system E. coli (ATCC 8739). Briefly: Zone of Inhibition (ZOI) of pressed powder pellets. Conditions: against E. coli after 24 h incubation at 37° C.

Description: Zone of Inhibition (ZOI). […] The cultures were streaked on Luria Agar (LB) plates and incubated overnight at 37° C. […] 50 μL of this stock suspension was spread homogeneously on a trypticase soy agar (TSA) plate (diameter 10 cm).

Regarding basic copper (II) carbonate [BCC], the “diameter of the ZOI” value was 12 mm.
In the case of `[O]=[Mo](=[O])=[O]` [molybdenum oxide, molybdenum (VI) oxide] it was 19 mm; in that of Zinc borate, “No ZOI”.
